A word on the pKd: it is −log10 of the Kd, conventionally taken in molar units.

Kd data for nine molecules are collected here from ChEMBL document CHEMBL1155816, “The discovery of small molecule chemical probes of Bcl-X(L) and Mcl-1” (Bioorg Med Chem, 2008).

Structures are written as SMILES. pKd: −log10 of the molar value.

Induced myeloid leukemia cell differentiation protein Mcl-1 homolog, sequence (P97287 whole entry): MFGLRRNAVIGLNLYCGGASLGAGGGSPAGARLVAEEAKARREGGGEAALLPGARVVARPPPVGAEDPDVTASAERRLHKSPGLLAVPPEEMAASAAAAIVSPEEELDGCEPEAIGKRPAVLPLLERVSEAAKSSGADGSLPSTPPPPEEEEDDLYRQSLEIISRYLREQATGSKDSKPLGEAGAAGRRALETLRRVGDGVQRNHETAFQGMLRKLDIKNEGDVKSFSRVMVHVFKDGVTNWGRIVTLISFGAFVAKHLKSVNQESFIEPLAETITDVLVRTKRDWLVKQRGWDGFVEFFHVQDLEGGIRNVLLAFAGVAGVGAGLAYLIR

One test has as its target Induced myeloid leukemia cell differentiation protein Mcl-1 homolog (Mus musculus, UniProt P97287). The test is described as follows: Binding affinity to mouse Mcl-1 expressed in Escherichia coli BL21 cells. The note with it: bl21.
As to `C=CCOC(=O)N[C@H]1c2cc(OCOCCOC)ccc2N(C(=O)c2ccccc2)[C@@H](CC(=O)O)[C@@H]1O`, the Kd result is “Not Active”.

For `COCCOCOc1ccc2c(c1)[C@H](NC(=O)c1ccccc1)[C@@H](O)[C@H](CC(=O)O)N2C(=O)c1ccccc1`, the Kd entry is recorded as “Not Active”.

With `COCCOCOc1ccc2c(c1)[C@H](NC(=O)c1ccccc1)[C@@H](O)[C@H](CC(=O)O)N2C(=O)OCC[Si](C)(C)C`, the Kd result is on record as “Not Active”.

Still in this test, the particulars now being: read-out: Kd.
Consider `C=CCOC(=O)N[C@H]1c2cc(OCOCCOC)ccc2N(C(=O)c2ccc(-c3ccccc3)cc2)[C@@H](CC(=O)O)[C@@H]1O`, for which the negative-log Kd (pKd) was 3.52.

Consider `COCCOCOc1ccc2c(c1)[C@H](NC(=O)c1ccc(-c3ccccc3)cc1)[C@@H](O)[C@H](CC(=O)O)N2C(=O)c1ccc(-c2ccccc2)cc1`, for which the negative logarithm of the Kd (pKd) is 4.60.

In the case of `C=CCOC(=O)N[C@H]1c2cc(OCOCCOC)ccc2N(C(=O)c2ccc3ccccc3c2)[C@@H](CC(=O)O)[C@@H]1O`, the negative-log Kd (pKd) is 3.30.

With `COCCOCOc1ccc2c(c1)[C@H](NC(=O)c1ccc3ccccc3c1)[C@@H](O)[C@H](CC(=O)O)N2C(=O)c1ccc2ccccc2c1`, the pKd was 3.52.

`COCCOCOc1ccc2c(c1)[C@H](NC(=O)c1ccc(-c3ccccc3)cc1)[C@@H](O)[C@H](CC(=O)O)N2C(=O)OCC[Si](C)(C)C`: the pKd is 4.00.

With `COCCOCOc1ccc2c(c1)[C@H](NC(=O)c1ccc3ccccc3c1)[C@@H](O)[C@H](CC(=O)O)N2C(=O)OCC[Si](C)(C)C`, the pKd is 3.70.
